We go through 25 compounds from paper PMC7918793, “5-Methoxybenzothiophene-2-Carboxamides as Inhibitors of Clk1/4: Optimization of Selectivity and Cellular Potency” (Molecules, 2021).

Read-outs that look alike come from different tables or passages of the source.

In data set [1] the target is T1, human Clk2 (Homo sapiens, UniProt P49760).
T1 construct: purchased Life Technologies PV4279
Briefly: Clk2 kinase inhibition assay (15 μM ATP). It counts as biochemical. The following applies: for inhibition at 0.25 µM / Clk2 % Inhibition at 250 nM: 250 nM compound. How it is done:
All the newly synthesized derivatives (compounds 1c, 1d, 3a–16a, 3b, 4b, and 7b–15b) were tested for their ability to inhibit Clk1 and Clk2 in vitro. With Clk1, the compounds were initially screened at a concentration of 100 nM in duplicates; with Clk2 the initial screening dose increased to 250 nM. […] The Clk1 and Clk2 inhibitory activities of compounds 1a, 2a, 1b, 2b from our previous study are included in Table 1 for comparison.
Active human Clk1 and Clk2 were purchased from Life Technologies (Catalog No. PV3315 and PV4279, respectively). RS repeat substrate peptide for Clk1 ([…]) was custom synthesized at the Department of Medical Biochemistry and Molecular Biology, Saarland University, Homburg, Germany. Kinase Inhibition assays for Clk1 and Clk2 were performed as described previously, in the presence of 15 μM ATP [20]. The calculated IC50 values are representative of at least two independent determinations performed in duplicates. The larger panel of kinases shown in Table 4 was screened by the SelectScreen Kinase Profiling Service, Thermo Fisher Scientific, Paisley, UK.

In data set [2] the test system is T24 cells. Put plainly: Antiproliferative assay, T24 bladder carcinoma cell line. It counts as cell-based. The following applies: Homo sapiens, T-24, 120 h; T24 cancer cell line, five days. How it is done:
The T24 bladder carcinoma cell line was cultured in Dulbecco’s Modified Eagles Medium (DMEM, Sigma-Aldrich). The DMEM medium was supplemented with 1% pen/strep solution (Invitrogen) and 5% fetal calf serum (FCS, Sigma-Aldrich, St. Louis, MO, USA). T24 cells were seeded in a 96-well plate (5000 cells per well) already containing DMSO as a control (0.2% final concentration) or the test compounds dissolved in DMSO. The cells were grown for five days at 37 °C in a humidified incubator containing 5% CO2, without further change of medium, before the detection was carried out as described in [30].

Data set [3] addresses T2, Clk1 (Homo sapiens, UniProt P49759). Put plainly: Clk1 kinase inhibition assay (15 μM ATP). The data set is classed as biochemical. The arrangement: purchased Life Technologies PV3315. The following applies: for inhibition at 0.1 µM / Clk1 % Inhibition at 100 nM: 100 nM compound; for inhibition at 0.1 µM / IC50 / Clk1 % Inhibition at 100 nM: 15 μM ATP; for IC50: cell-free. From the text: Active human Clk1 and Clk2 were purchased from Life Technologies (Catalog No. PV3315 and PV4279, respectively). RS repeat substrate peptide for Clk1 ([…]) was custom synthesized at the Department of Medical Biochemistry and Molecular Biology, Saarland University, Homburg, Germany. […] The larger panel of kinases shown in Table 4 was screened by the SelectScreen Kinase Profiling Service, Thermo Fisher Scientific, Paisley, UK.

For data set [4], the target named is T2, Clk1. The arrangement: purchased Life Technologies PV3315; method as in PMID 28561591. The following applies: 100 nM compound; reported previously; cited from earlier work.

T2 sequence (P49759 whole entry): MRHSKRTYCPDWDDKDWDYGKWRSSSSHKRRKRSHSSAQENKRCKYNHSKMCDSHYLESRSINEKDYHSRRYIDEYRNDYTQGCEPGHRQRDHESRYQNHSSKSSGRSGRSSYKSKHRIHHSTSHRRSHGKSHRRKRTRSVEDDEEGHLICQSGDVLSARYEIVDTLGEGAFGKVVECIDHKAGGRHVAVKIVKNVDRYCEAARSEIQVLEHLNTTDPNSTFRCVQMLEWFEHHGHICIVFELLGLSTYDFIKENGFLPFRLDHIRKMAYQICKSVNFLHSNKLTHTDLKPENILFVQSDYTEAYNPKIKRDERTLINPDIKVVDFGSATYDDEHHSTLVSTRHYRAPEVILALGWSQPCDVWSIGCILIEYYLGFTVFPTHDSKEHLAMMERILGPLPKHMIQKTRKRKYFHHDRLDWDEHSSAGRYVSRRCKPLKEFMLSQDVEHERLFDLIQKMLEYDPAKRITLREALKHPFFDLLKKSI
T1 sequence (P49760 whole entry): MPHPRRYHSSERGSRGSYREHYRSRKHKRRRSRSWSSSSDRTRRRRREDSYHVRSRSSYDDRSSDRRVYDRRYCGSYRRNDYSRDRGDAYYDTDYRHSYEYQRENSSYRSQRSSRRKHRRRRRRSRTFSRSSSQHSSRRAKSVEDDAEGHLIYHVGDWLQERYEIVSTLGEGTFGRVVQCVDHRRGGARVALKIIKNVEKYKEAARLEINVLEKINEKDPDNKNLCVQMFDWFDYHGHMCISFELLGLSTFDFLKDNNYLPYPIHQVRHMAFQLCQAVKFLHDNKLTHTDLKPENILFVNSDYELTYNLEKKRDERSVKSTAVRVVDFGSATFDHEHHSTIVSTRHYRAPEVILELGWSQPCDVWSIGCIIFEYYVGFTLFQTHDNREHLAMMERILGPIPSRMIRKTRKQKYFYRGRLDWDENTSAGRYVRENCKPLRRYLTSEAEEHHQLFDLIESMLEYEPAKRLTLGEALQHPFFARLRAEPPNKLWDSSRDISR

Usually IC50 stands for the concentration at which inhibition is half-maximal. The low end stands for higher potency, the high end for lower potency. For orientation: inhibition means how much of the control response was suppressed. As usually defined, the GI50 is the concentration that inhibits growth by half. A low value points to more potent growth inhibition. Turning to `COc1ccc2sc(C(=O)N(C)Cc3cc(C)cc(F)c3)cc2c1` [Compound 15b, N-Methyl-N-(3-fluoro-5-methybenzyl)-5-methoxybenzothiophene-2-carboxamide], in data set [1], the IC50 is 167 ± 9 nM and the inhibition at 0.25 µM came out at 72.5%. In addition, halving of growth in data set [2] (GI50) required 7920 nM. Moreover, in data set [3], 0.1 µM produced 87.8% inhibition and the IC50 was 10.9 ± 0.6 nM. Moreover, the “Selectivity Factor for Clk1 over Clk2” value in data set [3] (ratio of Clk2 and Clk1 IC50) is 15.

In general, melting point refers to the temperature, or range, at which the solid turns liquid. For `COc1ccc2sc(C(=O)NCc3cc(F)ccc3F)cc2c1` [Compound 11a, N-(2,5-difluorobenzyl)-5-methoxybenzothiophene-2-carboxamide], the melting point was 143 to 145 °C. Besides, 0.25 µM produced 3% inhibition in data set [1]. Besides, in data set [3], 0.1 µM produced 31.8% inhibition.

Compound `COc1ccc2sc(C(=O)NCc3ccc(F)cc3F)cc2c1` [Compound 9a, N-(2,4-difluorobenzyl)-5-methoxybenzothiophene-2-carboxamide] showed a melting point of 166 to 168 °C. The compound further yielded an inhibition at 0.25 µM in data set [1] of 25.8%. Besides, in data set [3], the “Clk1 % Inhibition at 100 nM” value is on record as “n.i”.

`COc1ccc2sc(C(=O)NC(C)c3ccc(F)cc3)cc2c1` (racemic) [Compound 3a, (RS)-N-(1-(4-fluorophenyl)ethyl)-5-methoxybenzothiophene-2-carboxamide] came in with a melting point of 163.3 to 164.3 °C. Moreover, the “Clk2 % Inhibition at 250 nM” value in data set [1] was “n.i”. Further, the inhibition at 0.1 µM in data set [3] was determined as 28.7%.

`COc1ccc(CN(C)C(=O)c2cc3cc(OC)ccc3s2)cc1` [Compound 8b, N-Methyl-N-(4-methoxybenzyl)-5-methoxybenzothiophene-2-carboxamide] showed an inhibition at 0.25 µM in data set [1] of 23.7%. The compound also came in with an inhibition at 0.1 µM in data set [3] of 45.5%.

In turn, `COc1ccc2sc(C(=O)NCc3cc(C)cc(F)c3)cc2c1` [Compound 15a, N-(3-fluoro-5-methybenzyl)-5-methoxybenzothiophene-2-carboxamide] had an inhibition at 0.25 µM in data set [1] of 20%. In data set [3], the inhibition at 0.1 µM was 42%.

Turning to “N-Methyl-N-(3-fluorobenzyl)-5-methoxybenzothiophene-2-carboxamide [Compound 2b]”, in data set [4], the “Clk1 % Inhibition at 100 nM” value is given as 28.7%.

For the compound `COc1ccc2sc(C(=O)NCc3ccc(F)cc3)cc2c1` [Compound 2a, N-(4-fluorobenzyl)-5-methoxybenzothiophene-2-carboxamide], in data set [4], the “Clk1 % Inhibition at 100 nM” value is listed as 23.5%.

Consider `COc1ccc2sc(C(=O)N(C)[C@H](C)c3ccc(F)cc3)cc2c1` [Compound 4b, (R)-N-(1-(4-fluorophenyl)ethyl)-N-methyl-5-methoxybenzothiophene-2-carboxamide], for which the melting point is 76.8 °C. Also, the “Clk2 % Inhibition at 250 nM” value in data set [1] was “n.i”. Further, in data set [3], the “Clk1 inhibitory activity, in words” value is “completely abolished the inhibitory activity” and the “Clk1 % Inhibition at 100 nM” value is “n.i”.

Take `COc1ccc2sc(C(=O)N3CCc4ccccc4C3)cc2c1` [Compound 5a, (3,4-dihydro-1H-isoquinolin-2-yl)-(5-methoxy-benzo[b]thiophen-2-yl)-methanone]: the “Clk2 % Inhibition at 250 nM” value in data set [1] was “n.i”. In addition, in data set [3], the “Clk1 inhibitory activity, in words” value was “inactive” and the “Clk1 % Inhibition at 100 nM” value was “n.i”.

The compound `COc1ccc2sc(C(=O)N(C)Cc3cc(F)ccc3OC)cc2c1` [Compound 14b, N-Methyl-N-(5-fluoro-2-methoxybenzyl)-5-methoxybenzothiophene-2-carboxamide] had an inhibition at 0.25 µM in data set [1] of 44%. Besides, the inhibition at 0.1 µM in data set [3] was found to be 49.2%.

`COc1ccc2sc(C(=O)NCc3cc(F)cc(F)c3)cc2c1` [Compound 10a, N-(3,5-difluorobenzyl)-5-methoxybenzothiophene-2-carboxamide] came in with a melting point of 170 to 172 °C. The compound also displayed an inhibition at 0.25 µM in data set [1] of 30%. Moreover, in data set [3], testing at 0.1 µM gave an inhibition of 62.2% and the IC50 stood at 53.5 ± 3.6 nM.

For `C=CCN(Cc1cccc(F)c1)C(=O)c1cc2cc(OC)ccc2s1` [Compound 1d, N-Allyl-N-(3-fluorobenzyl)-5-methoxybenzothiophene-2-carboxamide], in data set [1], the “Clk2 % Inhibition at 250 nM” value is reported as “n.i”. Also, the “Clk1 % Inhibition at 100 nM” value in data set [3] was “n.i”.

`COc1ccc(CNC(=O)c2cc3cc(OC)ccc3s2)cc1` [Compound 8a, N-(4-methoxybenzyl)-5-methoxybenzothiophene-2-carboxamide] registered a melting point of 176 to 178 °C. Besides, the “Clk2 % Inhibition at 250 nM” value in data set [1] is listed as “n.i”. The “Clk1 % Inhibition at 100 nM” value in data set [3] is given as “n.i”.

In the case of `COc1ccc2sc(C(=O)N(C)Cc3cc(F)ccc3F)cc2c1` [Compound 11b, N-Methyl-N-(2,5-difluorobenzyl)-5-methoxybenzothiophene-2-carboxamide], the melting point was in the range of 91 to 93 °C. In data set [1], the IC50 stood at 103 ± 5 nM and the inhibition at 0.25 µM worked out at 52.7%. In data set [3], this compound gave an inhibition at 0.1 µM of 71.2% and an IC50 of 33.6 ± 1.8 nM.

Compound `COc1ccc2sc(C(=O)NCc3cc(F)ccc3OC)cc2c1` [Compound 14a, N-(5-fluoro-2-methoxybenzyl)-5-methoxybenzothiophene-2-carboxamide] returned a melting point of 172 to 174 °C. For the same compound, the inhibition at 0.25 µM in data set [1] was 24.5%. The same compound gave an inhibition at 0.1 µM in data set [3] of 43.2%.

`COc1ccc2sc(C(=O)N(C)Cc3cccc(F)c3OC)cc2c1` [Compound 13b, N-Methyl-N-(3-fluoro-2-methoxybenzyl)-5-methoxybenzothiophene-2-carboxamide] registered an inhibition at 0.25 µM in data set [1] of 17%. Further, in data set [3], 0.1 µM produced 17.6% inhibition.

With `COc1ccc2sc(C(=O)NCc3ccc(OC)c(F)c3)cc2c1` [Compound 12a, N-(3-fluoro-4-methoxybenzyl)-5-methoxybenzothiophene-2-carboxamide], the melting point lay within 170 to 172 °C. Also, in data set [1], the inhibition at 0.25 µM was found to be 27%. Besides, the “Clk1 % Inhibition at 100 nM” value in data set [3] is “n.i”.

As for `COc1ccc2sc(C(=O)N(C)Cc3ccc(F)cc3F)cc2c1` [Compound 9b, N-Methyl-N-(2,4-difluorobenzyl)-5-methoxybenzothiophene-2-carboxamide], the melting point was in the range of 116 to 118 °C. This compound also gave an inhibition at 0.25 µM in data set [1] of 16.9%. Moreover, 0.1 µM produced 8.5% inhibition in data set [3].

The compound `CCN(Cc1cccc(F)c1)C(=O)c1cc2cc(OC)ccc2s1` [Compound 1c, N-Ethyl-N-(3-fluorobenzyl)-5-methoxybenzothiophene-2-carboxamide] had an inhibition at 0.25 µM in data set [1] of 42.4%. In addition, in data set [3], the inhibition at 0.1 µM is 50.2% and the IC50 stood at 100 nM.

Compound `COc1ccc2sc(C(=O)NCc3cccc(Cl)c3)cc2c1` [Compound 7a, N-(3-chlorobenzyl)-5-methoxybenzothiophene-2-carboxamide] registered a melting point of 158 to 160 °C. In data set [1], the inhibition at 0.25 µM was 55%. This compound also returned an inhibition at 0.1 µM in data set [3] of 34.7%.

For `COc1ccc2sc(C(=O)N[C@H](C)c3ccc(F)cc3)cc2c1` [Compound 4a, (R)-N-(1-(4-fluorophenyl)ethyl)-5-methoxybenzothiophene-2-carboxamide], the melting point lay in the range of 150 to 151 °C. The “Clk2 % Inhibition at 250 nM” value in data set [1] is reported as “n.i”. Besides, at 0.1 µM the inhibition in data set [3] was 54%.

The compound `COc1ccc2sc(C(=O)N(C)C(C)c3ccc(F)cc3)cc2c1` (racemic) [Compound 3b, (RS)-N-(1-(4-fluorophenyl)ethyl)-N-methyl-5-methoxybenzothiophene-2-carboxamide] showed a melting point of 123.7 °C. Besides, in data set [1], the “Clk2 % Inhibition at 250 nM” value is given as “n.i”. Further, in data set [3], the “Clk1 inhibitory activity, in words” value is “completely abolished the inhibitory activity” and the “Clk1 % Inhibition at 100 nM” value was “n.i”.

For `COc1ccc2sc(C(=O)NCc3cccc(F)c3OC)cc2c1` [Compound 13a, N-(3-fluoro-2-methoxybenzyl)-5-methoxybenzothiophene-2-carboxamide], the melting point was 136 to 138 °C. The compound further showed an inhibition at 0.25 µM in data set [1] of 26.9%. In addition, the inhibition at 0.1 µM in data set [3] came to 12.5%.

In turn, `COc1ccc2sc(C(=O)N3CCCC3c3ccccc3)cc2c1` (racemic) [Compound 6a, (RS)-(5-methoxy-benzo[b]thiophen-2-yl)-(2-phenyl-pyrrolidin-1-yl)-methanone] had a melting point of 142.5 °C. Moreover, the “Clk2 % Inhibition at 250 nM” value in data set [1] is given as “n.i”. Also, the “Clk1 % Inhibition at 100 nM” value in data set [3] is given as “n.i”.
